# Test results as given in patent US20020102893A1, “ANTI-TACK SPANDEX FIBERS CONTAINING ANTIMICROBIAL AGENTS THEREIN AND FABRICS MADE THEREFROM” (priority 2000, published 2002).
# Tests used:
# [1] = Discoloration (photoreduction) of spandex yarns after exposure to indoor fluorescent light; assay type: physicochemical; details: after 1 month under typical indoor (fluorescent) light; antimicrobial within spandex yarn
# Experimental: The Example spandex yarns were also tested for discoloration (photoreduction) after exposure to typical indoor (fluorescent) light after 1 month of such storage. […] Thus, for this purpose AlphaSan®-type antimicrobials are most preferred. […] Thus, for anti-tack, discoloration, and resiliency within and on the target spandex yarns, the AlphaSan® antimicrobials are, again, most preferred. The discoloration results are as follows, again with a non-antimicrobial control for comparison: […]
# [2] = no test described; cited from earlier work
compound,measurement,setting,value
Oc1cc(Cl)ccc1Oc1ccc(Cl)cc1Cl [triclosan],"discoloration (photoreduction) performance, in words",[1],excellent colorations
same,water solubility,[2],highly water soluble
